Key:
HeLa cells = assay: HeLa Proliferation assay (CellTiter Glo); type: cell-based; details: 72 hours
How it was run: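 Viability measured with CellTiter Glo after 72 h compound exposure (37 °C, 5% CO2, humidified) of HeLa cells seeded at 2000 per well in 10% FBS DMEM without phenol red and allowed 4 h recovery.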

ARP clone 12231 (NNRTI) = assay: BiCycle assay, resistant viral strain; type: cell-based, HIV-1; details: IC50 resistant strain / IC50 wild type NL4-3, BiCycle Assay
Procedure: (§1) BiCycle Assay is cell based assay allowing the evaluation of the antiviral activity of HIV-1 inhibitors on the whole replication cycle of HIV-1. The assay consists in a first round of infection of the T-cell line MT-2 followed by infection of TZM-bl cells. MT-2 cells were seeded at a concentration of 50,000 cells/well in a 96-well plate and infected with the HIV-1 reference strain NL4-3 in presence of five-fold dilutions of the investigational compounds. After 72 hours, 50 µl of supernatant from each well, containing the virus produced in the first round of infection, were used to infect TZM-bl cells seeded in a 96-plate well at a concentration of 30,000 cells/well. Two days later, cells were lysed adding 40 µl of Glo Lysis Buffer (Promega) to each well for 5 minutes, then 40 µl of Brighy-Glo Luciferase Reagent (Promega) were added to each well for relative luminescence units (RLU) counting using Glo-Max Multi Detection System (Promega). RLU values from each well were elaborated using the GraphPad v5.0 software to calculate the IC50 of each compound.
(§2) The antiviral activity of some of the compounds listed in Table 3 was further evaluated determining the IC50 with viruses carrying resistant mutations that reduce the susceptibility to drugs currently employed in clinical practice to treat HIV infection. The resistant viruses were obtained through the NIH AIDS Reagent Program (www.aidsreagent.org) and have been already characterized by the Phenosense Assay (Monogram Biosciences), considered as the reference assay for phenotypic investigation of HIV drug resistance due to its large application in clinical trials.
(§3) IC50 values of resistant viral strains were determined by using the BiCycle Assay as previously described. The results of the analysis are summarized in Table 6, where fold change values are calculated as the ratio between the IC50 values of resistant HIV-1 strains and the IC50 value of the wild type reference HIV-1 strain NL4-3. Table 6. Fold change values of resistant viral strains

ARP clone 11808 (PI) = assay: BiCycle assay, resistant viral strain; type: cell-based, HIV-1; details: IC50 resistant strain / IC50 wild type NL4-3, BiCycle Assay
Procedure: as §1, §2, §3

ARP clone 7400 (NRTI) = assay: BiCycle assay, resistant viral strain; type: cell-based, HIV-1; details: IC50 resistant strain / IC50 wild type NL4-3, BiCycle Assay
Procedure: as §1, §2, §3

ARP clone 12465 (PI) = assay: BiCycle assay, resistant viral strain; type: cell-based, HIV-1; details: IC50 resistant strain / IC50 wild type NL4-3, BiCycle Assay
Procedure: as §1, §2, §3

ARP clone 12229 (NNRTI) = assay: BiCycle assay, resistant viral strain; type: cell-based, HIV-1; details: IC50 resistant strain / IC50 wild type NL4-3, BiCycle Assay
Procedure: as §1, §2, §3

ARP clone 11845 (INI) = assay: BiCycle assay, resistant viral strain; type: cell-based, HIV-1; details: IC50 resistant strain / IC50 wild type NL4-3, BiCycle Assay
Procedure: as §1, §2, §3

ARP clone 7401 (NRTI) = assay: BiCycle assay, resistant viral strain; type: cell-based, HIV-1; details: IC50 resistant strain / IC50 wild type NL4-3, BiCycle Assay
Procedure: as §1, §2, §3

ARP clone 11842 (INI) = assay: BiCycle assay, resistant viral strain; type: cell-based, HIV-1; details: IC50 resistant strain / IC50 wild type NL4-3, BiCycle Assay
Procedure: as §1, §2, §3

HIV-1 integrase = target: T1, HIV-1 integrase (Human immunodeficiency virus type 1 group M subtype B, UniProt P04585); assay: HIV-integrase assay (strand transfer kit); type: biochemical
T1 construct: Full-length recombinant HIV-1 integrase protein was loaded onto the DS DNA substrate; purchased Xpress Bio Co EZ-1700
Procedure: The integrase assay was performed using the HIV-1 integrase assay kit (Xpress Bio Co, catalog number EZ-1700, Thurmont, MD) according to the manufacturer's instructions. In this assay the streptavidin-coated 96-well plates were used and coated with a double stranded HIV-1 LTR U5 donor substrate (DS) DNA containing an end-labeled biotin. Full-length recombinant HIV-1 integrase protein was loaded onto the DS DNA substrate. After, the compounds were added in the concentration 5 - 1500 µM, and then a different double-stranded target substrate (TS) DNA containing a 3'-end modification was added to the reaction mixture. The HIV-1 integrase cleaved the terminal two bases from the exposed 3'-end of the HIV-1 LTR DS DNA and then catalyzed a strand-transfer recombination reaction to integrate the DS DNA into the TS DNA. The products of the reaction were detected colorimetrically using an HRP-labeled antibody directed against TS 3'-end modification. […] The percentage of DMSO was fixed at 2.5% v/v in all samples. The absorbance at 450 nm was recorded with an iMark™ Microplate Absorbance Reader (Bio-Rad Laboratories). The absorbance values were corrected from the mean blank absorbance (reaction buffer negative control). To calculate the IC50 values, the experimental data were fitted in a logarithm scale using Origin software (Dose response fitting).

Row | Compound | Proliferation assay HELA TD50 (HeLa cells) [nM] | Fold change 12231 (NNRTI) (ARP clone 12231 (NNRTI)) | Fold change 11808 (PI) (ARP clone 11808 (PI)) | Fold change 7400 (NRTI) (ARP clone 7400 (NRTI)) | Fold change 12465 (PI) (ARP clone 12465 (PI)) | Fold change 12229 (NNRTI) (ARP clone 12229 (NNRTI)) | Fold change 11845 (INI) (ARP clone 11845 (INI)) | Fold change 7401 (NRTI) (ARP clone 7401 (NRTI)) | Fold change 11842 (INI) (ARP clone 11842 (INI)) | IC50 (HIV-1 integrase) [µM] | fold increase in IN IC50 values in comparison to NC Inhibition IC50 values (HIV-1 integrase) [fold] | inhibition at 0.175 µM (HIV-1 integrase; read-out: % of inhibition (positive control)) [%]
1 | O=C(NCC1CCCCC1)c1nc(-c2ccccn2)nc(O)c1O [Compound 1, N-(cyclohexylmethyl)-5,6-dihydroxy-2-(pyridin-2-yl)pyrimidine-4-carboxamide] | 3585.7 | 1.5 | 0.8 | 0.4 | 2.9 | 0.6 | 1.2 |  |  |  |  | 
2 | Cc1cccnc1-c1nc(O)c(O)c(C(=O)N[C@H](C)C2CCCCC2)n1 [Compound 23, (R)-N-(1-cyclohexylethyl)-5,6-dihydroxy-2-(3-methylpyridin-2-yl)pyrimidine-4-carboxamide] | 2333.9 | 2.8 | 5.1 | 0.7 | 2.3 | 1.0 | 1.2 | 1.4 | 8.6 |  |  | 
3 | C[C@@H](NC(=O)c1nc(-c2cc(Cl)ccn2)nc(O)c1O)C1CCCCC1 [Compound 26, (R)-2-(4-chloropyridin-2-yl)-N-(1-cyclohexylethyl)-5,6-dihydroxypyrimidine-4-carboxamide] | 3197.7 | 0.8 | 0.2 | 0.3 | 0.5 |  | 0.7 | 0.1 |  | 150 | 100 | 
4 | COc1ccnc(-c2nc(O)c(O)c(C(=O)N[C@H](C)C3CCCCC3)n2)c1 [Compound 28, (R)-N-(1-cyclohexylethyl)-5,6-dihydroxy-2-(4-methoxypyridin-2-yl)pyrimidine-4-carboxamide] | 2860.9 | 2.8 | 1.4 | 0.8 | 3.7 | 0.1 | 2.3 | 0.8 | 2.9 | 84 | 3.8 | 
5 | C[C@@H](NC(=O)c1nc(-c2nccc3ccccc23)nc(O)c1O)C1CCCCC1 [Compound 31, (R)-N-(1-cyclohexylethyl)-5,6-dihydroxy-2-(isoquinolin-1-yl)pyrimidine-4-carboxamide] | 2070.9 | 2.0 | 1.6 | 0.7 | 2.1 | 1.3 | 0.9 | 1.3 | 9.8 |  |  | 
6 | CCNCc1ccc(-c2nc(O)c(O)c(C(=O)N[C@H](C)C3CCCCC3)n2)nc1 [Compound 60, (R)-N-(1-cyclohexylethyl)-2-(5-((ethylamino)methyl)pyridin-2-yl)-5,6-dihydroxypyrimidine-4-carboxamide] | 6428.6 |  |  |  |  |  |  |  |  | 10 | 2.9 | 
7 | C[C@@H](NC(=O)c1nc(-c2cc(CCN(C)C)ccn2)nc(O)c1O)C1CCCCC1 [Compound 92, (R)-N-(1-cyclohexylethyl)-2-(4-(2-(dimethylamino)ethyl)pyridin-2-yl)-5,6-dihydroxypyrimidine-4-carboxamide] | 1168.4 |  |  |  |  |  |  |  |  |  |  | 
8 | Cc1nnc(C(=O)NC(C)(C)c2nc(C(=O)NCc3ccc(F)cc3)c(O)c(=O)n2C)o1 [Raltegravir™, Raltegravir, reference compound] |  |  |  |  |  |  |  |  |  |  |  | ≥ 97
